Laboratory results taken from patent US11415579B2, “Assay for measuring a rate of reaction between a target and a ligand candidate” (Imperial College Innovations Ltd., priority 2016, dated 2022).

Key:
Cdk2(T182C) (C177A) = biological target: T1, Cdk2(T182C) (C177A) (Homo sapiens, UniProt P24941, C177A/T182C); test: Kinetic thiol consumption assay with Cdk2 mutant T182C; format: binding; set-up: key to Rate enhancement, Cdk2 T182C: rate constant with Cdk2 ÷ rate constant with model thiol (fold); details: additional mutation C177A; for Rate constant with Cdk2 T182C: Protein: Cdk2, cysteine position T182C, in h^-1
T1 construct: poly-histidine; made in house; host or cells: E. coli
Summary of the method: (§1)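 His-tagged single-surface-cysteine Cdk2 mutants (C177A background) from E. coli, 5 μM in degassed phosphate buffer pH 8, pre-treated with immobilized TCEP beads. Fluorescence (ex/em 380/470 nm) read after 1 h at room temperature, normalized to DMSO/thiol-only control; first-order decay fits gave rate constants, divided by model-thiol rate for rate enhancement.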

Cdk2(H71C) (C177A) = biological target: T2, Cdk2(H71C) (C177A) (Homo sapiens, UniProt P24941, C177A/H71C); test: Kinetic thiol consumption assay with Cdk2 mutant H71C; format: binding; set-up: key to Rate enhancement, Cdk2 H71C: rate constant with Cdk2 ÷ rate constant with model thiol (fold); details: additional mutation C177A; for Rate constant with Cdk2 H71C: Protein: Cdk2, cysteine position H71C, in h^-1
T2 construct: poly-histidine; made in house; host or cells: E. coli
Summary of the method: as §1

[1] = Kinetic thiol consumption assay with model thiol glutathione; format: physicochemical; set-up: Rate constant with glutathione (k(GSH)): unit not given here; details: for Rate constant with glutathione (k(GSH)): 500 μM ligand, 5 μM thiol, phosphate buffer pH 8; for Rate constant with Glutathione: Protein: Glutathione, cysteine position NA, in h-1
Summary of the method: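 Rate constants for acrylamide reaction with 5 μM glutathione come from first-order exponential fits of normalized fluorescence decay (ex 380, em 470 nm). Reactions run in degassed phosphate buffer at pH 8 containing TCEP beads, room temperature.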

[2] = biological target: T3, human cyclin-dependent kinase 2 (Cdk2) (Homo sapiens, UniProt P24941); test: Kinetic thiol consumption assay with wild type Cdk2 (C177); format: binding; set-up: key to Rate enhancement, Cdk2 WT: k(Cdk2) divided by k(model thiol); Rate constant with Cdk2 (k(Cdk2)): unit not given here; details: for Rate constant with Cdk2 (k(Cdk2)): 500 μM ligand, 5 μM thiol, phosphate buffer pH 8; for Rate enhancement, Cdk2 WT: no additional mutations; for Rate constant with Cdk2 WT: Protein: Cdk2, cysteine position WT, in h^-1; for k(Cdk2)/k(Cdk2_mut) rate enhancement: model thiol Cdk2[C177A, F80C, K278C]; for k(Cdk2)/k(GSH) rate enhancement: model thiol glutathione
T3 construct: poly-histidine; made in house; host or cells: E. coli
Summary of the method: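 His-tagged human Cdk2 from E. coli (sole surface cysteine C177) or a model thiol, each 5 μM in degassed phosphate buffer pH 8 with immobilized TCEP, reacted with acrylamides at room temperature. Fluorescence (ex 380/em 470) normalized to DMSO/thiol control over time; first-order rate constants, Cdk2 rate divided by model-thiol rate.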

Cdk2(S276C) (C177A) = biological target: T4, Cdk2(S276C) (C177A) (Homo sapiens, UniProt P24941, C177A/S276C); test: Kinetic thiol consumption assay with Cdk2 mutant S276C; format: binding; set-up: key to Rate enhancement, Cdk2 S276C: rate constant with Cdk2 ÷ rate constant with model thiol (fold); details: additional mutation C177A; for Rate constant with Cdk2 S276C: Protein: Cdk2, cysteine position S276C, in h^-1
T4 construct: poly-histidine; made in house; host or cells: E. coli
Summary of the method: as §1

Cdk2(N272C) (C177A) = biological target: T5, Cdk2(N272C) (C177A) (Homo sapiens, UniProt P24941, C177A/N272C); test: Kinetic thiol consumption assay with Cdk2 mutant N272C; format: binding; set-up: key to Rate enhancement, Cdk2 N272: rate constant with Cdk2 ÷ rate constant with model thiol (fold); details: for Rate enhancement, Cdk2 N272: Cdk2 N272, additional mutation C177A; for Rate constant with Cdk2 N272C: Protein: Cdk2, cysteine position N272C, additional mutation C177A, in h^-1
T5 construct: poly-histidine; made in house; host or cells: E. coli
Summary of the method: as §1

Cdk2[C177A, F80C, K278C] = biological target: T6, Cdk2[C177A, F80C, K278C] (Homo sapiens, UniProt P24941, C177A/F80C/K278C); test: Kinetic thiol consumption assay with mutant Cdk2 as model thiol; format: binding; set-up: unit not given here; details: 500 μM ligand, 5 μM thiol, phosphate buffer pH 8
T6 construct: poly-histidine; made in house; host or cells: E. coli
Summary of the method: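 Model thiol: His-tagged human Cdk2 C177A/F80C/K278C (two engineered surface cysteines), E. coli-expressed, 5 μM in degassed phosphate buffer pH 8 with immobilized TCEP beads (2% v/v). Fluorescence (ex/em 380/470 nm) followed over time at room temperature, normalized to DMSO/thiol control. First-order decay fit gives rate constants.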

Cdk2(R122C) (C177A) = biological target: T7, Cdk2(R122C) (C177A) (Homo sapiens, UniProt P24941, C177A/R122C); test: Kinetic thiol consumption assay with Cdk2 mutant R122C; format: binding; set-up: key to Rate enhancement, Cdk2 R122C: rate constant with Cdk2 ÷ rate constant with model thiol (fold); details: additional mutation C177A; for Rate constant with Cdk2 R122C: Protein: Cdk2, cysteine position R122C, in h-1
T7 construct: poly-histidine; made in house; host or cells: E. coli
Summary of the method: as §1

Cdk2(S181C) (C177A) = biological target: T8, Cdk2(S181C) (C177A) (Homo sapiens, UniProt P24941, C177A/S181C); test: Kinetic thiol consumption assay with Cdk2 mutant S181C; format: binding; set-up: key to Rate enhancement, Cdk2 S181C: rate constant with Cdk2 ÷ rate constant with model thiol (fold); details: additional mutation C177A; for Rate constant with Cdk2 S181C: Protein: Cdk2, cysteine position S181C, in h^-1
T8 construct: poly-histidine; made in house; host or cells: E. coli
Summary of the method: as §1

Cdk2(C177A, F80C) = biological target: T9, Cdk2(C177A, F80C) (Homo sapiens, UniProt P24941, C177A/F80C); test: Kinetic thiol consumption assay with Cdk2 mutant F80C, incl. kobs versus concentration (Kd, k2); format: binding; set-up: key to Rate enhancement, Cdk2 F80C: Cdk2 rate constant divided by model-thiol rate constant; details: for Rate enhancement, Cdk2 F80C / Rate constant with Cdk2 F80C: additional mutation C177A; for Rate constant with Cdk2 F80C: Protein: Cdk2, cysteine position F80C, in h^-1
T9 construct: poly-histidine; made in house; host or cells: E. coli
Summary of the method: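 His-tagged Cdk2(C177A/F80C) from E. coli or model thiol, 5 μM in degassed phosphate buffer pH 8 with TCEP beads, reacted with acrylamide ligands; fluorescence (ex/em 380/470 nm) normalized to DMSO control and fitted to first-order decay for kobs. Kd and k2 obtained from hyperbolic fit of kobs versus ligand concentration.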

[3] = hyperbolic fit of kobs against ligand concentration

SMILES | Rate enhancement, Cdk2 T182C (Cdk2(T182C) (C177A)) | Rate constant with Cdk2 T182C (Cdk2(T182C) (C177A)) | Rate enhancement, Cdk2 H71C (Cdk2(H71C) (C177A)) | Rate constant with glutathione (k(GSH)) [1] | Rate constant with Glutathione [1] | Rate constant with Cdk2 (k(Cdk2)) [2] | Rate enhancement, Cdk2 WT [2] | Rate constant with Cdk2 WT [2] | k(Cdk2)/k(Cdk2_mut) rate enhancement [2] | k(Cdk2)/k(GSH) rate enhancement [2] | Rate enhancement, Cdk2 S276C (Cdk2(S276C) (C177A)) | Rate constant with Cdk2 S276C (Cdk2(S276C) (C177A)) | Rate enhancement, Cdk2 N272 (Cdk2(N272C) (C177A)) | Rate constant with Cdk2 N272C (Cdk2(N272C) (C177A)) | Rate constant with Cdk2[C177A, F80C, K278C] (k(Cdk2_mut)) (Cdk2[C177A, F80C, K278C]) | Rate enhancement, Cdk2 R122C (Cdk2(R122C) (C177A)) | Rate constant with Cdk2 R122C (Cdk2(R122C) (C177A)) | Rate enhancement, Cdk2 S181C (Cdk2(S181C) (C177A)) | Rate constant with Cdk2 S181C (Cdk2(S181C) (C177A)) | Rate enhancement, Cdk2 F80C (Cdk2(C177A, F80C)) | further results
C=CC(=O)Nc1ccc(-c2ncccn2)cc1 [CA-037] | 12.3 | 0.1865 | 1.964 | 0.01523 | 0.01516 | 0.05015 | 3.308 | 0.05015 | 0.2569 | 3.293 | 1.763 | 0.02673 | 1.739 | 0.02636 | 0.1952 | 0.9697 | 0.0147 | 1.495 | 0.02267 | 63.59 | Rate constant with Cdk2 H71C (Cdk2(H71C) (C177A)): 0.02977; hit classification against Cdk2(F80C, C177A) (Cdk2(C177A, F80C)): hit ligands; Rate constant with Cdk2 F80C (Cdk2(C177A, F80C)): 0.964; kobs (Cdk2(C177A, F80C); [CA37] 0.02 mM): 0.00007107 min⁻¹; kobs (Cdk2(C177A, F80C); [CA37] 0.05 mM): 0.000271 min⁻¹; kobs (Cdk2(C177A, F80C); [CA37] 0.1 mM): 0.0006704 min⁻¹; kobs (Cdk2(C177A, F80C); [CA37] 0.2 mM): 0.001313 min⁻¹; kobs (Cdk2(C177A, F80C); [CA37] 0.35 mM): 0.002029 min⁻¹; kobs (Cdk2(C177A, F80C); [CA37] 0.5 mM): 0.002372 min⁻¹; kobs (Cdk2(C177A, F80C); [CA37] 1 mM): 0.004177 min⁻¹; kobs (Cdk2(C177A, F80C); [CA37] 2 mM): 0.005626 min⁻¹; Kd (Cdk2(C177A, F80C); [3]): 1.2 mM; k2 (Cdk2(C177A, F80C); [3]): 0.009427 min⁻¹
C=CC(=O)N1CC(Cc2ccccc2)C1 [CA-072] | 6.718 | 0.1492 | 16.46 | 0.01236 | 0.02221 | 0.0241 | 1.085 | 0.0241 | 5.016 | 1.95 | 4.036 | 0.08965 | 9.388 | 0.2085 | 0.00481 | 0.3503 | 0.00778 | 2.167 | 0.04813 | 0.2566 | Rate constant with Cdk2 H71C (Cdk2(H71C) (C177A)): 0.3655; Rate constant with Cdk2 F80C (Cdk2(C177A, F80C)): 0.0057
C=CC(=O)N1CCC(c2nnc3n2CCC3)CC1 [CA-106] | 3.971 | 0.01571 | 0 | 0.00227 | 0.003956 | 0.00145 | 0.5857 | 0.002317 | 0.9576 | 0.6367 | 0.7543 | 0.002984 | 3.031 | 0.01199 | 0.00151 | 0.2819 | 0.001115 | 1.69 | 0.006686 | 0 | –
C=CC(=O)NC1C2CC3CC(C2)CC1C3 (stereo not drawn) [CA-055] | 0.2621 | 0.0006241 | 0.4859 | 0.00243 | 0.002381 | 0.0007 | 0.4066 | 0.0009681 | 0.6937 | 0.2881 | 0.6972 | 0.00166 | 4.591 | 0.01093 | 0.00101 | 0.4288 | 0.001021 | 1.073 | 0.002556 | 0 | Rate constant with Cdk2 H71C (Cdk2(H71C) (C177A)): 0.001157
